Measured values: patent US20080275035A1 (priority 2005, published 2008)
Converted amounts (≈) assume the structure as drawn.

Tested on: not given
Experiment: not given

Compared with O=[N+]([O-])c1cn2c(n1)OC[C@@H](OCc1nc3ccc(OC(F)(F)F)cc3[nH]1)C2, O=[N+]([O-])c1cn2c(n1)OC[C@@H](OCc1nc3ccc(C(F)(F)F)cc3[nH]1)C2 is higher in melting point: 99 to 100 °C for the first, 120 to 121 °C for the second.

First: O=[N+]([O-])c1cn2c(n1)OCC(OCc1ccc(-c3nc4cc(OC(F)(F)F)ccc4o3)cc1)C2 (stereo not drawn)
Second: O=[N+]([O-])c1cn2c(n1)OC[C@@H](OCc1ccc(-c3nc4cc(OC(F)(F)F)ccc4[nH]3)cc1)C2
The melting point of the first is higher: 187 to 188 °C for the first, 98 to 99 °C for the second.

Compared with O=[N+]([O-])c1cn2c(n1)OC[C@@H](OCc1csc(-c3ccc(OC(F)(F)F)cc3)n1)C2, O=C(CO[C@@H]1COc2nc([N+](=O)[O-])cn2C1)Nc1nc(-c2ccc(OC(F)(F)F)cc2)cs1 is lower in melting point: 140 to 141 °C for the first, 120 to 121 °C for the second.

First: O=C(CO[C@@H]1COc2nc([N+](=O)[O-])cn2C1)N1CCN(c2ccc(OC(F)(F)F)cc2)CC1
Second: O=C(CO[C@@H]1COc2nc([N+](=O)[O-])cn2C1)N1CCN(c2ccc(F)cc2)CC1
The melting point of the first is higher: 77 to 79 °C for the first, 73 to 74 °C for the second.

First: O=C(CO[C@@H]1COc2nc([N+](=O)[O-])cn2C1)Nc1ccc(OC(F)(F)F)cc1
Second: O=C(CO[C@@H]1COc2nc([N+](=O)[O-])cn2C1)NCc1ccc(OC(F)(F)F)cc1
The melting point of the first is higher: 157 to 158 °C for the first, 110 to 111 °C for the second.

First: O=C(CO[C@@H]1COc2nc([N+](=O)[O-])cn2C1)N1CCC(c2nc3cc(OC(F)(F)F)ccc3[nH]2)CC1
Second: O=C(CO[C@@H]1COc2nc([N+](=O)[O-])cn2C1)Nc1nc2ccc(OC(F)(F)F)cc2s1 (stereo in doubt)
The melting point of the first is higher: 131 to 132 °C for the first, 89 to 90 °C for the second.

Compared with O=[N+]([O-])c1cn2c(n1)OCC(OCc1ccc(OCc3ccc(F)cc3)cc1)C2 (stereo not drawn), O=C(CO[C@@H]1COc2nc([N+](=O)[O-])cn2C1)N1CCN(c2ccc(C(F)(F)F)cn2)CC1 is higher in melting point: 150.2 to 150.9 °C for the first, 189 to 190 °C for the second.

Tested on: Mycobacterium tuberculosis H37Rv (ATCC 27294)
Experiment: microbe, parasite or virus in culture
Format: cell-based

[H]/N=C(/N)N[C@H]1[C@H](O)[C@@H](O)[C@H](O[C@@H]2O[C@@H](C)[C@](O)(C=O)[C@H]2O[C@@H]2O[C@@H](CO)[C@H](O)[C@@H](O)[C@@H]2NC)[C@@H](N/C(N)=N\[H])[C@@H]1O [streptomycin] showed an MIC of 0.25 µg/mL (≈ 0.43 µM).
